Test results as given in publication PMC7316778 (Nature Communications, 2020).
Values joined by “and” are separate entries in the source; they are usually repeats but may differ in a detail not shown here. Identical values can stand only once. Like-named read-outs stand apart in the source and are kept apart here.

Experiments:
Test in all cases: SelectScreen kinase assay
[1] = target: ABL1 (Homo sapiens, UniProt P00519)
Method: (§1) Selectivity profiling assays were performed by the Invitrogen SelectScreen™ Services. […] The concentration of ATP was selected to be equal to the KM, unless indicated otherwise.

[2] = target: T1, AURKC (Aurora C) (Homo sapiens, UniProt Q9UQB9)
T1 sequence (Q9UQB9 1-309): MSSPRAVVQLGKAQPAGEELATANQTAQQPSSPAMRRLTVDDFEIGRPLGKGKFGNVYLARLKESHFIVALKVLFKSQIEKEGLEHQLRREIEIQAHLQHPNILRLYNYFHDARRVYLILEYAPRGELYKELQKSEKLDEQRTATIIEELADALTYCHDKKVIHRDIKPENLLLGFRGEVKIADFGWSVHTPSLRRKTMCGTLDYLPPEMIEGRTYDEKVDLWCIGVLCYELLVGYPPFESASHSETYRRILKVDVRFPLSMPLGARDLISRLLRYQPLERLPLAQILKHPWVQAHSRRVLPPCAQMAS
Method: as §1

[3] = target: BLK (Homo sapiens, UniProt P51451)
BLK, sequence (P51451 whole entry): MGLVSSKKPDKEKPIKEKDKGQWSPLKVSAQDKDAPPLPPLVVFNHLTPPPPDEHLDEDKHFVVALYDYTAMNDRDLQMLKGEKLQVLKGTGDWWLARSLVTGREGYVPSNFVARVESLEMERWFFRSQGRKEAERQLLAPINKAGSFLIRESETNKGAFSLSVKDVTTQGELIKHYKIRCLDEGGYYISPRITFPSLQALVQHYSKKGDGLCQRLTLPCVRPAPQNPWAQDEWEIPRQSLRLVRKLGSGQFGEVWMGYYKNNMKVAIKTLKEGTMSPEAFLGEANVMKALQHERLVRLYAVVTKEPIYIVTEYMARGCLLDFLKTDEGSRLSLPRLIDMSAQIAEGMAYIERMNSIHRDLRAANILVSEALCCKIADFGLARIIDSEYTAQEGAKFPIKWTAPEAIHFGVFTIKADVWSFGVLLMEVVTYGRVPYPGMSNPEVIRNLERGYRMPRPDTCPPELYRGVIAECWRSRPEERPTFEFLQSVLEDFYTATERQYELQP
Method: as §1

[4] = target: BMPR1A (ALK3) (Homo sapiens, UniProt P36894); details: for Inhibition at 1 µM (%): BMPR1A (ALK3), LanthaScreen Binding
Method: as §1

[5] = target: CAMK2G (CaMKII gamma) (Homo sapiens, UniProt Q13555)
Method: as §1

[6] = target: CAMK4 (CaMKIV) (Homo sapiens, UniProt Q16566)
Method: as §1

[7] = target: CDK2/cyclin A (Homo sapiens, UniProt P24941)
Method: as §1

[8] = target: GRK7 (Homo sapiens, UniProt Q8WTQ7); details: 1 h, 1 μM WEL028, 1 h preincubation
Method: as §1

[9] = target: LTK (TYK1) (Homo sapiens, UniProt P29376)
LTK (TYK1), sequence (P29376 17-864): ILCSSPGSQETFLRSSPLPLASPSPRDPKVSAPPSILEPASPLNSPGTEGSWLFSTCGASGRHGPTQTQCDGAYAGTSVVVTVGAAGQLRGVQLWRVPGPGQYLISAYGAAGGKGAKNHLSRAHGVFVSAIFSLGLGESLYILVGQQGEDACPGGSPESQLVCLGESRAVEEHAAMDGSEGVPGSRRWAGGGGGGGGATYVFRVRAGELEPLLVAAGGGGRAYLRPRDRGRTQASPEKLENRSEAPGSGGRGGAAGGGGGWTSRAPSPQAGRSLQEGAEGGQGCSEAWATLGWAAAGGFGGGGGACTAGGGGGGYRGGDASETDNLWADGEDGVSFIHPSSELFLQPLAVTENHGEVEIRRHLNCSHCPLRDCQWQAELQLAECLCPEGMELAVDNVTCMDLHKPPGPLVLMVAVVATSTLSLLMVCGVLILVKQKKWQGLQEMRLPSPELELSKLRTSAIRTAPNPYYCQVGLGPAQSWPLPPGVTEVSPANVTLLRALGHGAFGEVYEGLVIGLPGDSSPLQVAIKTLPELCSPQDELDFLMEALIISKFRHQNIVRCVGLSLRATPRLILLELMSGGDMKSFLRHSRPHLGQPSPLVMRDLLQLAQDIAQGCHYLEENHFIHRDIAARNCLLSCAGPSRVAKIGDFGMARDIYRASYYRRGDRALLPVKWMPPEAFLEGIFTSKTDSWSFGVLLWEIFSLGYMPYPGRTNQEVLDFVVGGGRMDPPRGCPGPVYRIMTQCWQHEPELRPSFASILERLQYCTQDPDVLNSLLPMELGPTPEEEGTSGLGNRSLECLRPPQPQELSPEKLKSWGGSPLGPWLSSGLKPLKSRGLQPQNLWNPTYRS
Method: as §1

[10] = target: MAP3K14 (NIK) (Homo sapiens, UniProt Q99558)
MAP3K14 (NIK), sequence (Q99558 whole entry): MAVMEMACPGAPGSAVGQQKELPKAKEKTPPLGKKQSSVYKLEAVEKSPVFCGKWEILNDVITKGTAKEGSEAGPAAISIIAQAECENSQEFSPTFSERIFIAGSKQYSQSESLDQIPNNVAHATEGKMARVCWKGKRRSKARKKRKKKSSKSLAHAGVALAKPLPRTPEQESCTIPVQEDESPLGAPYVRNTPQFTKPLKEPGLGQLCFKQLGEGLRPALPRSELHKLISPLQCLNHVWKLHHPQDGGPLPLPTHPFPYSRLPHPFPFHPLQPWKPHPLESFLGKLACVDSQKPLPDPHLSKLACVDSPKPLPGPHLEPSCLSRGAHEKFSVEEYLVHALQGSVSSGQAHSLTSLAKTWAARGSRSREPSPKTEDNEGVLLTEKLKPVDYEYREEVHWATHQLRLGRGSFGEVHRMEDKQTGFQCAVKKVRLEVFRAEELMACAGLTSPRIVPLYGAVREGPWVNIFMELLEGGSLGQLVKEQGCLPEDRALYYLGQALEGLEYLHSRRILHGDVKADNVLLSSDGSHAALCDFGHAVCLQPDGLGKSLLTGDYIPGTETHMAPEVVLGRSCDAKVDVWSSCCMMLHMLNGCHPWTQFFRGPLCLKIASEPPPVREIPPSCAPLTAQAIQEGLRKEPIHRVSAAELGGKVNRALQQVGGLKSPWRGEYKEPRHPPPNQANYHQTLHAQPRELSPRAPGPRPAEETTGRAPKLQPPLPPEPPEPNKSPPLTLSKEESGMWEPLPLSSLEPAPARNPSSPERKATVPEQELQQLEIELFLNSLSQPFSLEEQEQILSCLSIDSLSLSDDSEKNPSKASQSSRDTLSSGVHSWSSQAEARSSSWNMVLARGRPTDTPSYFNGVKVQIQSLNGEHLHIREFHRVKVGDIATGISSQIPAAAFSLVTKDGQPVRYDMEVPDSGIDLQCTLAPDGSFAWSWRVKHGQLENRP
Method: as §1

[11] = target: MAPK11 (p38 beta) (Homo sapiens, UniProt Q15759)
MAPK11 (p38 beta), sequence (Q15759 whole entry): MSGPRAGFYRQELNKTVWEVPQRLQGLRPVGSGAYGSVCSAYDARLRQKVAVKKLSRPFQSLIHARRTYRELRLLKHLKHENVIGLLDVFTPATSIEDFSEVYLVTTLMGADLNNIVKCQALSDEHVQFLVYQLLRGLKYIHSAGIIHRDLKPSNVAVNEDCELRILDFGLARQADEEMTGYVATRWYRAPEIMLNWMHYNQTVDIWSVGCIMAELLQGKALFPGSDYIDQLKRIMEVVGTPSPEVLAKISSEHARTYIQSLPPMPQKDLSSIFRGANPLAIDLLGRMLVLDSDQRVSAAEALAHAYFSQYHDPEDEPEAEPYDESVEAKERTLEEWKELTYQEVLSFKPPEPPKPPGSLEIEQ
Method: as §1

[12] = target: MARK3 (Homo sapiens, UniProt P27448)
MARK3, sequence (P27448 whole entry): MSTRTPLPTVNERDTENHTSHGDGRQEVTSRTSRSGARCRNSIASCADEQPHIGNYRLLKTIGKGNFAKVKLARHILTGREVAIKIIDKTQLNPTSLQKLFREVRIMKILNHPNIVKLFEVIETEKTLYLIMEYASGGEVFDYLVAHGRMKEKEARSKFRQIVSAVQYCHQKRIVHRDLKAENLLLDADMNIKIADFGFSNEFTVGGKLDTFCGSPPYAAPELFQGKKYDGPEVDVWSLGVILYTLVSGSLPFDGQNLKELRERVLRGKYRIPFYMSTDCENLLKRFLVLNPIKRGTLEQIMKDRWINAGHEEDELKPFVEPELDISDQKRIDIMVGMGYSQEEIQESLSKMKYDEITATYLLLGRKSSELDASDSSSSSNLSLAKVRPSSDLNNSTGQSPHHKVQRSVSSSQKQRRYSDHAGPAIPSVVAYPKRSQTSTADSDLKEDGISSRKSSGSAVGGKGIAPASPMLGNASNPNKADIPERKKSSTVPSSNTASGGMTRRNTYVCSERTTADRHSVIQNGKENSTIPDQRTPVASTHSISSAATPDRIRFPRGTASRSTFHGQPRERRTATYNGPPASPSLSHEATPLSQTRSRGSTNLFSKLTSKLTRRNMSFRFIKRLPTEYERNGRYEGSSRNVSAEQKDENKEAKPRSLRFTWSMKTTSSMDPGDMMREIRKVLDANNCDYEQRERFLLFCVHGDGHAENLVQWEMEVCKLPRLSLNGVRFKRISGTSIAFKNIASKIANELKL
Method: as §1

[13] = target: PIK3C2G (PI3K-C2 gamma) (Homo sapiens, UniProt O75747)
Method: as §1

[14] = target: PIM3 (Homo sapiens, UniProt Q86V86)
Method: as §1

[15] = target: PTK2 (FAK) (Homo sapiens, UniProt Q05397)
Method: as §1

[16] = target: PTK6 (Brk) (Homo sapiens, UniProt Q13882)
Method: as §1

[17] = target: RPS6KA3 (RSK2) (Homo sapiens, UniProt P51812)
Method: as §1

[18] = target: SGK2 (Homo sapiens, UniProt Q9HBY8)
SGK2, sequence (Q9HBY8 whole entry): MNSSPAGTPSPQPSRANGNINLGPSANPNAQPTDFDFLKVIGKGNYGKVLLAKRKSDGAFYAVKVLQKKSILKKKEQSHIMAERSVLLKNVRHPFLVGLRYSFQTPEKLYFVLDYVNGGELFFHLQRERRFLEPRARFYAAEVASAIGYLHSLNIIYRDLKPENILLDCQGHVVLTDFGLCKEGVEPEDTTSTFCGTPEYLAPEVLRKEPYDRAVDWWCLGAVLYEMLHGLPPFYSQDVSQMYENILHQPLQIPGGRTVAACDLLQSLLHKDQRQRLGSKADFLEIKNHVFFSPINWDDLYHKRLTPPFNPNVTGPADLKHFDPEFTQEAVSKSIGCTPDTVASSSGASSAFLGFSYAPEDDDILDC
Method: as §1

[19] = target: SNF1LK2 (Homo sapiens, UniProt Q9H0K1)
SNF1LK2, sequence (Q9H0K1 whole entry): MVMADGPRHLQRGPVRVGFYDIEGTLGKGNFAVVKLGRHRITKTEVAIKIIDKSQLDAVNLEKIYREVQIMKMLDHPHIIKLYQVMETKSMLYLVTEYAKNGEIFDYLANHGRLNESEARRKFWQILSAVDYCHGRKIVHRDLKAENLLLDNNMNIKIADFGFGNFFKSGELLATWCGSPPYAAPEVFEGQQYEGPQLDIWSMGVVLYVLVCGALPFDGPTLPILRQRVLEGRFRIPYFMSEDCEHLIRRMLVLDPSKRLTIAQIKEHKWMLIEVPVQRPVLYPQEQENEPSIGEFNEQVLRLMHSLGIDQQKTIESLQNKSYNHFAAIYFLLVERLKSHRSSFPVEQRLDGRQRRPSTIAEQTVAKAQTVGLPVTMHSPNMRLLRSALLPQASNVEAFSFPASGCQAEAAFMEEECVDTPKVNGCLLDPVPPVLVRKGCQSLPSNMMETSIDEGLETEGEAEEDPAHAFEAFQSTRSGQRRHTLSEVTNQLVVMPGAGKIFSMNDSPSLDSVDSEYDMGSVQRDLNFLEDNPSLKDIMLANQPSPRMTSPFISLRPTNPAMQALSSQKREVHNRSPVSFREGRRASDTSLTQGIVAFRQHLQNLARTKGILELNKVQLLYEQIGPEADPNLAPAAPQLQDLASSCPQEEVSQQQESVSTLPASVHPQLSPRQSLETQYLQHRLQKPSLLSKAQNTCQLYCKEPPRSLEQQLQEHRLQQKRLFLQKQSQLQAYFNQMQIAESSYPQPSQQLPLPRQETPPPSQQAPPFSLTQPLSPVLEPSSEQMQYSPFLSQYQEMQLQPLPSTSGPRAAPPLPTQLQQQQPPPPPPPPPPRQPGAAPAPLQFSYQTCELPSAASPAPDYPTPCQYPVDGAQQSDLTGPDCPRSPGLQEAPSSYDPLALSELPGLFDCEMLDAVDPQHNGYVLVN
Method: as §1

[20] = target: TAOK2 (TAO1) (Homo sapiens, UniProt Q9UL54)
Method: as §1

[21] = target: TLK2 (Homo sapiens, UniProt Q86UE8)
Method: as §1

[22] = target: ZAP70 (Homo sapiens, UniProt P43403); details: 1 h, 1 μM WEL028, 1 h preincubation
Method: as §1

[23] = 1 h, 1 μM WEL028, 1 h preincubation
[24] = 1 µM, ZLYTE, ATP Km app, listed as WEL028, 1 µM
[25] = read-out: Inhibition at 1 µM (%), 1 µM, ZLYTE, ATP Km app

Q: How did the inhibition at 1 µM [1, 23] turn out when `C#CCOc1ccc(Nc2ncc(Cl)c(Nc3ccccc3NC(=O)C=C)n2)c(OC)c1` [Compound 6] was run?
A: -3%

Q: And the “Inhibition at 1 µM (%)” value ([1]; ABL1, 1 µM, ZLYTE, ATP Km app, listed as WEL028, 1 µM)?
A: -7% and 1%

Q: And the inhibition at 1 µM [2, 23]?
A: 37%

Q: And the “Inhibition at 1 µM (%)” value ([2]; AURKC (Aurora C), 1 µM, ZLYTE, ATP Km app, listed as WEL028, 1 µM)?
A: 41%

Q: And the inhibition at 1 µM ([2]; read-out: Inhibition at 1 µM (%), AURKC (Aurora C), 1 µM, ZLYTE, ATP Km app)?
A: 33%

Q: And the inhibition at 1 µM [3, 23]?
A: 0%

Q: What about the “Inhibition at 1 µM (%)” value ([3]; BLK, 1 µM, ZLYTE, ATP Km app, listed as WEL028, 1 µM) of the same compound?
A: 4% and -5%

Q: And the inhibition at 1 µM [4, 23]?
A: -2%

Q: And the “Inhibition at 1 µM (%)” value [4]?
A: 2%

Q: What about the “Inhibition at 1 µM (%)” value ([4]; listed as WEL028, 1 µM) of the same compound?
A: -6%

Q: What about the inhibition at 1 µM [5, 23] of the same compound?
A: 3%

Q: What about the “Inhibition at 1 µM (%)” value ([5]; CAMK2G (CaMKII gamma), 1 µM, LanthaScreen Binding) of the same compound?
A: 13%

Q: And the inhibition at 1 µM [6, 23]?
A: -5%

Q: What about the “Inhibition at 1 µM (%)” value ([6]; CAMK4 (CaMKIV), 1 µM, ZLYTE, ATP Km app) of the same compound?
A: -15%

Q: What about the “Inhibition (%)” value ([7]; 1 μM WEL028, 1 h preincubation) of the same compound?
A: -3%

Q: And the “Inhibition at 1 µM (%)” value ([7]; CDK2/cyclin A, 1 µM, ZLYTE, ATP Km app, listed as WEL028, 1 µM)?
A: -5% and 0%

Q: What about the inhibition at 1 µM [8] of the same compound?
A: 11%

Q: What about the inhibition at 1 µM [9, 23] of the same compound?
A: 43%

Q: What about the “Inhibition at 1 µM (%)” value ([9]; LTK (TYK1), 1 µM, ZLYTE, ATP Km app, listed as WEL028, 1 µM) of the same compound?
A: 37%

Q: And the inhibition at 1 µM ([9]; read-out: Inhibition at 1 µM (%), LTK (TYK1), 1 µM, ZLYTE, ATP Km app)?
A: 48%

Q: What about the inhibition at 1 µM [10, 23] of the same compound?
A: 3%

Q: And the “Inhibition at 1 µM (%)” value ([10]; MAP3K14 (NIK), 1 µM, LanthaScreen Binding, listed as WEL028, 1 µM)?
A: 7% and -1%

Q: What about the inhibition at 1 µM [11, 23] of the same compound?
A: 6%

Q: What about the “Inhibition at 1 µM (%)” value ([11]; MAPK11 (p38 beta), 1 µM, ZLYTE, ATP Km app, listed as WEL028, 1 µM) of the same compound?
A: 7%

Q: What about the inhibition at 1 µM ([11]; read-out: Inhibition at 1 µM (%), MAPK11 (p38 beta), 1 µM, ZLYTE, ATP Km app) of the same compound?
A: 6%

Q: What about the inhibition at 1 µM [12, 23] of the same compound?
A: 6%

Q: And the “Inhibition at 1 µM (%)” value ([12]; MARK3, 1 µM, ZLYTE, ATP Km app, listed as WEL028, 1 µM)?
A: 8%

Q: And the inhibition at 1 µM ([12]; read-out: Inhibition at 1 µM (%), MARK3, 1 µM, ZLYTE, ATP Km app)?
A: 5%

Q: And the inhibition at 1 µM [13, 23]?
A: -3%

Q: What about the “Inhibition at 1 µM (%)” value ([13]; PIK3C2G (PI3K-C2 gamma), 1 µM, Adapta, ATP 10, listed as WEL028, 1 µM) of the same compound?
A: -1% and -6%

Q: What about the inhibition at 1 µM [14, 23] of the same compound?
A: 0%

Q: And the “Inhibition at 1 µM (%)” value ([14]; PIM3, 1 µM, ZLYTE, ATP Km app, listed as WEL028, 1 µM)?
A: -1% and 1%

Q: And the IC50 [15]?
A: 398 nM

Q: What about the “Inhibition at 1 µM (%)” value [15, 24] of the same compound?
A: 79%

Q: And the inhibition at 10 µM ([15]; 1 h, log[inhibitor] (M) -5.00, ZLYTE, ATP Km app)?
A: 90%

Q: And the inhibition at 3.31 µM ([15]; 1 h, log[inhibitor] (M) -5.48, ZLYTE, ATP Km app)?
A: 88%

Q: What about the inhibition at 1.12 µM ([15]; 1 h, log[inhibitor] (M) -5.95, ZLYTE, ATP Km app) of the same compound?
A: 78%

Q: What about the inhibition at 0.372 µM ([15]; 1 h, log[inhibitor] (M) -6.43, ZLYTE, ATP Km app) of the same compound?
A: 46%

Q: What about the inhibition at 0.123 µM ([15]; 1 h, log[inhibitor] (M) -6.91, ZLYTE, ATP Km app) of the same compound?
A: 26%

Q: What about the inhibition at 0.0138 µM ([15]; 1 h, log[inhibitor] (M) -7.86, ZLYTE, ATP Km app) of the same compound?
A: 4%

Q: What about the inhibition at 0.00151 µM ([15]; 1 h, log[inhibitor] (M) -8.82, ZLYTE, ATP Km app) of the same compound?
A: 4%

Q: What about the Apparent fold selectivity ([15]; IC50 on that kinase divided by IC50 on FES^S700C) of the same compound?
A: 89 fold

Q: And the inhibition at 1 µM [15, 25]?
A: 77%

Q: What about the “Inhibition at 1 µM (%)” value [16, 24] of the same compound?
A: 29%

Q: What about the inhibition at 1 µM [16, 23] of the same compound?
A: 31%

Q: And the inhibition at 1 µM [16, 25]?
A: 33%

Q: And the “Inhibition at 1 µM (%)” value [17, 24]?
A: 12%

Q: What about the inhibition at 1 µM [17, 23] of the same compound?
A: 13%

Q: What about the inhibition at 1 µM [17, 25] of the same compound?
A: 13%

Q: And the “Inhibition at 1 µM (%)” value [18, 24]?
A: 4% and -1%

Q: And the inhibition at 1 µM [18, 23]?
A: 2%

Q: What about the “Inhibition at 1 µM (%)” value [19, 24] of the same compound?
A: -8% and -5%

Q: And the inhibition at 1 µM [19, 23]?
A: -6%

Q: And the “Inhibition at 1 µM (%)” value [20, 24]?
A: -1% and 9%

Q: And the inhibition at 1 µM [20, 23]?
A: 4%

Q: And the “Inhibition at 1 µM (%)” value ([21]; 1 µM, LanthaScreen Binding, listed as WEL028, 1 µM)?
A: 1%

Q: What about the inhibition at 1 µM [21, 23] of the same compound?
A: 0%

Q: What about the inhibition at 1 µM [22] of the same compound?
A: 2%
